What was measured:
[1] = tested on: Arabidopsis thaliana; assay: MOA1 phenotypic profiling of Arabidopsis sprayed with unknown and commercial herbicides; format: in vivo
[2] = tested on: Arabidopsis thaliana plants; assay: SOA1 phenotypic analysis of herbicide-treated Arabidopsis plants; format: in vivo
[3] = tested on: Saccharomyces cerevisiae wild type strain BY4743; assay: AF1 metabolite analysis (GC-MS, LC-MS) of yeast treated with antifungal drugs; format: cell-based
[4] = tested on: Saccharomyces cerevisiae wild type strain BY4743; assay: AF1 combined gene expression and metabolite data mapped to KEGG reactions and pathways; format: cell-based
Source text: In AF1, two different technologies were utilized: gene expression analysis (for examination of mRNA expression) and metabolite analysis. […] As noted previously, existing metabolic databases may be helpful in practicing the methods and systems of the present invention, but many databases include limitations that make their use in data analysis and pathway mapping less than straightforward. […] This caveat to KEGG makes it difficult to pinpoint the correct pathway when attempting to link a gene to a specific pathway. […] The pathway score indicates how meaningful the mapping is, or how likely it is to be correctly indicative of the pathway involved in the perturbation under examination. The method provides a pathway score based on perturbation levels of genes and/or compounds and the information content of each gene and/or compound in the pathway, i.e., a pathway score indicates the extent to which other pathways are mapped to a gene/compound. For example, imagine that two genes are perturbed in a particular experiment. One gene maps to only one pathway, giving a high degree of probability that the perturbed pathway is the one identified in the mapping. The second gene maps to three pathways. In the later example, there is only one-third the probability that the pathway identified in the mapping is the one perturbed. The present invention provides a method for calculating the pathway scores, so that more weight is given to a score of a gene or compound that maps to only one pathway than to a score of a gene or compound that maps to multiple pathways. […] Where n=the total number of genes in the pathway; ipath—count=the number of pathways containing a gene; and j=the number of genes in the pathway that are perturbed. Another factor to be considered when weighting a pathway score is the degree of perturbation. Degree of perturbation can be calculated, for example, based on a number of standard deviations from a norm, and included in an equation such as the one shown above, so that not only the number of pathways is taken into account, but also accounts for the amount of gene transcript or compound present as compared to a control. Compounds were also linked to pathways using the KEGG database. […] Of the 676 compounds under consideration, 77 were detected in the AF1 samples. […] The multiple mapping feature of KEGG makes it difficult to pinpoint the correct pathway when trying to link a compound to a specific pathway. […] A pathway score calculation is applied to the compounds to account for both information content (number of pathways a compound maps to) and perturbation level. The data were then combined to determine the number of reactions showing an enzyme and at least one compound perturbed, and to determine the number of pathways having at least one enzyme and one perturbed compound perturbed. The results of the analysis are represented in Tables 16 and 17, and were difficult to interpret, illustrating that the ability to draw conclusions from compound mapping to pathways is limited when absent additional data.

## Nc1nc[nH]n1 [Amitrole]
[1]
  phenotype observed: exhibited chlorosis and not true bleaching
[2]; herbicide-treated Arabidopsis
  characteristic symptoms (phenotypic analysis): leaf bleaching and leaf enlargement
[2]; three-week-old Arabidopsis treated with herbicide, phenotypes shown in FIG. 12
  Symptom Class: 2

## OC(Cn1cncn1)(Cn1cncn1)c1ccc(F)cc1F [Fluconazole]
[3]; GC
  Fold Change of alanine: 0.3084
  Fold Change of asparagine: 0.3999
  Fold Change of aspartic acid: 0.4337
  Fold Change of campesterol: 0
  Fold Change of desmosterol: 0
  Fold Change of disaccaride1: 0.3883
  Fold Change of disaccaride2: 0.1517
  Fold Change of disaccaride3: 0.5803
  Fold Change of ergosterol: 0.948
  Fold Change of fucosterol: 6.665
  Fold Change of glutamine: 0.5242
  Fold Change of glycanopyrose: 1.202
  Fold Change of glycerol: 0.2187
  Fold Change of glycine: −0.1037
  Fold Change of hexadecanoic acid: 0.1343
  Fold Change of iso citric acid: 0.3923
  Fold Change of isoleucine: 0.391
  Fold Change of lanosterol: 8.462
  Fold Change of leucine: 0.3387
  Fold Change of lysine: 0.3412
  Fold Change of malic acid: 0.3975
  Fold Change of mevalonic acid lactone: 0.2333
  Fold Change of octadecanoic acid: 0.082
  Fold Change of oleic acid: −0.3073
  Fold Change of ornithine2: 0.4473
  Fold Change of ornithine3: 0.2647
  Fold Change of palmiteliadic acid: −0.08867
  Fold Change of phenylalanine: 0.2774
  Fold Change of phosphate: −0.508
  Fold Change of pyrimidine: 0.2457
[3]; LC
  Fold Change of abscisic acid: 0
  Fold Change of adenosine: 0
  Fold Change of glutamine/lysine: 0.2242
  Fold Change of guanosine: −0.9981
[3]; nLC
  Fold Change of 2-ketobutyric acid: −0.9992
  Fold Change of 2-ketoglutaric: −0.9995
  Fold Change of 3-indolylacetonitri: −0.9998
  Fold Change of 4-methylcatechol: 0
  Fold Change of 4aminobutyrate/dimg: 0.1384
  Fold Change of 5hydroxyLtryptophan: 0
  Fold Change of 6-benzylaminopurine: 0
  Fold Change of DLaminoadipic acid: 0.443
  Fold Change of NacetylDglucosamine: 0
  Fold Change of NacetylLglutamate: 0.1369
  Fold Change of NacetylLornithine: 0
  Fold Change of abscisic acid: 0
  Fold Change of aconitic acid: 0.6483
  Fold Change of adenine: 0
  Fold Change of adenosine: 0
  Fold Change of alanine: 0.399
  Fold Change of allantoic acid: 0.2392
  Fold Change of allantoin: 0.3942
  Fold Change of anthranilic acid: 0
  Fold Change of arginine: 0.6484
  Fold Change of argininosuccinate: 0
  Fold Change of asparagine: 0.3545
  Fold Change of aspartic: 0.4993
  Fold Change of benzoic acid: 0
  Fold Change of biotin: 0.3455
  Fold Change of caffeic acid: −0.4711
  Fold Change of catechol: 0
  Fold Change of cinnamic acid: 0
  Fold Change of citricanoic/itaconi: 0
  Fold Change of citrulline: 0
  Fold Change of coumaric acid: 0
  Fold Change of cytidine: −0.7969
  Fold Change of cytosine: 0
  Fold Change of decanoic acid: 0.1846
  Fold Change of diaminopimelic acid: 0
  Fold Change of dihydrofolic acid: 0
  Fold Change of estrone: 0
  Fold Change of farnesol: 0
  Fold Change of folic acid: 0
  Fold Change of fumaric/3m2oxobutan: 0.6009
  Fold Change of gallic acid: 0.5071
  Fold Change of gibberellic: 0
  Fold Change of giutamine/lysine: 0.3309
  Fold Change of glucosamine6PO4: −0.9951
  Fold Change of glutamic/acetylseri: 0.3842
  Fold Change of guanine: 0
  Fold Change of guanosine: −0.993
  Fold Change of histidine: 0
  Fold Change of homogentisic/uric: 0
  Fold Change of hydrocortisone: 0
  Fold Change of indole3pyruvic acid: 0
  Fold Change of inostol/glucos/sorb: −0.4744
  Fold Change of isocitric/citric/qu: 1.457
  Fold Change of jasmonic acid: 0
  Fold Change of kinetin: 0
  Fold Change of lactic acid: −0.0439
  Fold Change of lauric acid: 0.3906
  Fold Change of leucine/isoleucine/: 0.3306
  Fold Change of luteolin: 0
  Fold Change of malic acid: 0.4366
  Fold Change of malonic acid: 0
  Fold Change of menthol*: 0.04758
  Fold Change of methionine: 0
  Fold Change of nicotinic acid: 2.443
  Fold Change of nopaline: 0.3432
  Fold Change of oleic acid: −0.01684
  Fold Change of ornithine: 0.3508
  Fold Change of orotic acid: 0
  Fold Change of palmitic acid: −0.0233
  Fold Change of phenylalanine: 0.1527
  Fold Change of phenylpyruvic acid: 0
  Fold Change of phosphoenolpyruvate: 0
  Fold Change of pinitol: 0
  Fold Change of pipecolic acid: 0.2901
  Fold Change of porphobilinogen: 0
  Fold Change of proline: 0.4164
  Fold Change of pyridoxine: −0.04201
[3]; pLC
  Fold Change of 4-aminobenzoic acid: 0
  Fold Change of 4-methylcatechol: 0
  Fold Change of 4ambutyrate/dimglyc: −0.4383
  Fold Change of 5hydroxyLtryptophan: 0
  Fold Change of 6benzylaminopurine: 0
  Fold Change of DL-aminoadipic acid: 0.1155
  Fold Change of NacetylDglucosamine: 0
  Fold Change of NacetylLglutamate: 0
  Fold Change of NacetylLornithine: 0.1584
  Fold Change of adenine: −0.09439
  Fold Change of alanine/sarcosine: 0.1269
  Fold Change of allantoic acid: 0
  Fold Change of anthranilic acid: 0
  Fold Change of arginine: 0.1179
  Fold Change of argininosuccinate: 0
  Fold Change of asparagine: 0.3192
  Fold Change of aspartic acid: 0.214
  Fold Change of biotin: 0
  Fold Change of caffeine: 0
  Fold Change of citric acid TME: 0
  Fold Change of citrulline: 0.08252
  Fold Change of cytidine: 0
  Fold Change of cytosine: 0
  Fold Change of diaminopimelic acid: 0
  Fold Change of dihydrofolic acid: 0
  Fold Change of dipicolinic acid: 0
  Fold Change of folic acid: 0
  Fold Change of glucosamine: 0
  Fold Change of glucosamine6PO4: 0
  Fold Change of glutamate: −0.06179
  Fold Change of glutathione: −0.05832
  Fold Change of histidine: 0
  Fold Change of hydrocortisone: 0
  Fold Change of hypoxanthine: 0.1298
  Fold Change of itaconic acid dimes: 0
  Fold Change of kinetin: 0
  Fold Change of leucine/isoleucine/: 0.1638
  Fold Change of luteolin: 0
  Fold Change of mannitol: 0.152
  Fold Change of methionine: −0.2906
  Fold Change of mevalonic lactone: −0.5175
  Fold Change of niacinamide: 0
  Fold Change of nicotinic acid: −0.7982
  Fold Change of nopaline: 0
  Fold Change of ornithine: 0.4775
  Fold Change of phenylalanine: −0.1809
  Fold Change of phosphoenolpyruvate: 0
  Fold Change of pipecolic acid: 0.2583
  Fold Change of progesterone: 0
  Fold Change of proline: 0.2075
  Fold Change of pyridoxine: −0.3831
[4]
  Number of Reactions Having an Enzyme and at Least One Compound Perturbed: 2
